Biological target: His-tagged N-terminal ATP binding domain (amino acid residues 9-236) of HSP90α (Homo sapiens, UniProt P07900)
Assay: HSP90 inhibitor binding potency: TRF competition binding assay
Details: Table 1; competition with biotinylated radicicol
Procedure: HSP90 Inhibitor Binding Potency: TRF Binding Assay
In this example, the binding potency of HSP90 inhibitors as measured by a TRF binding assay is described.
TRF competition binding assays were performed to determine the binding potency (IC50 values) of HSP90 inhibitors. Purified His-tagged N-terminal ATP binding domain (amino acid residues 9-236) of HSP90α (HSP90α GeneID: 3320; mRNA Sequence NM_005348) was incubated for two hours at room temperature in binding buffer (50 mM HEPES, 6 mM MgCl2, 20 mM KCl and 0.1% BSA) with biotinylated radicicol and progressively higher concentrations of the competing compounds. A fraction of the mixture was transferred to capture plates (coated with streptavidin) and incubated for one hour at room temperature. After washing with DELFIA wash buffer, europium-labeled anti-his antibody was added and incubated for two hours at room temperature, followed by washing with DELFIA buffer. DELFIA enhancement solution was then added. After gentle shaking for 10 minutes, the plates were read in VICTOR for europium counts.

IC50 [µM] | SMILES
< 10 | Cc1nc(N)nc2c1C(=O)NC(c1ccc(F)cc1-c1ccccc1OC(F)(F)F)C2 (centres unmarked) [Compound 15, 2-Amino-7-(5-fluoro-2′-trifluoromethoxy-biphenyl-2-yl)-4-methyl-7,8-dihydro-6H-pyrido[4,3-d]pyrimidin-5-one]
< 10 | Cc1nc(N)nc2c1C(=O)NC(c1ccc(F)cc1-c1ccc(F)nc1)C2 (centres unmarked) [Compound 17, 2-Amino-7-[4-fluoro-2-(6-fluoro-pyridin-3-yl)-phenyl]-4-methyl-7,8-dihydro-6H-pyrido[4,3-d]pyrimidin-5-one]
< 10 | Cc1nc(N)nc2c1C(=O)NC(c1ccc(F)cc1-c1cccc(F)c1)C2 (centres unmarked) [Compound 19, 2-Amino-7-(5,3′-difluoro-biphenyl-2-yl)-4-methyl-7,8-dihydro-6H-pyrido[4,3-d]pyrimidin-5-one]

Same assay, conditions: Table 2; competition with biotinylated radicicol

IC50 [µM] | SMILES
< 10 | CCc1nc(N)nc2c1C(=O)N[C@@H](c1ccc(F)cc1-c1cccc(OC)n1)C2 [Compound 81, (R)-2-Amino-4-ethyl-7-[4-fluoro-2-(6-methoxy-pyridin-2-yl)-phenyl]-7,8-dihydro-6H-pyrido[4,3-d]pyrimidin-5-one]
< 10 | COc1cc(F)ccc1-c1cc(F)ccc1[C@H]1Cc2nc(N)ncc2C(=O)N1 [Compound 56, (R)-2-Amino-7-(5,4′-difluoro-2′-methoxy-biphenyl-2-yl)-7,8-dihydro-6H-pyrido[4,3-d]pyrimidin-5-one]
< 10 | CCOc1cccc(-c2cc(F)ccc2[C@H]2Cc3nc(N)nc(C)c3C(=O)N2)n1 [Compound 74]
< 10 | COc1cnc(-c2cc(F)ccc2[C@H]2Cc3nc(N)nc(C)c3C(=O)N2)nc1OC [Compound 51, (R)-2-Amino-7-[2-(4,5-4-methoxy-pyrimidin-2-yl)-4-fluoro-phenyl]-4-methyl-7,8-dihydro-6H-pyrido[4,3-d]pyrimidin-5-one]
< 10 | Nc1ncc2c(n1)C[C@H](c1ccc(F)cc1-c1cccnc1)NC2=O [Compound 62, (R)-2-Amino-7-(4-fluoro-2-pyridin-3-yl-phenyl)-7,8-dihydro-6H-pyrido[4,3-d]pyrimidin-5-one]
> 10 | CCc1nc(N)nc2c1C(=O)N[C@@H](c1ccccc1-c1csc(OC)n1)C2 [Compound 80, (R)-2-Amino-4-ethyl-7-[2-(2-methoxy-thiazol-4-yl)-phenyl]-7,8-dihydro-6H-pyrido[4,3-d]pyrimidin-5-one]
< 10 | COc1nc(-c2cc(F)ccc2[C@H]2Cc3nc(N)nc(C)c3C(=O)N2)ncc1Cl [Compound 52, (R)-2-Amino-7-[2-(5-chloro-4-methoxy-pyrimidin-2-yl)-4-fluoro-phenyl]-4-methyl-7,8-dihydro-6H-pyrido[4,3-d]pyrimidm-5-one]
< 10 | COc1ccc(F)cc1-c1cc(F)ccc1[C@H]1Cc2nc(N)ncc2C(=O)N1 [Compound 55, (R)-2-Ammo-7-(5,5′-difluoro-2′-methoxy-biphenyl-2-yl)-7,8-dihydro-6H-pyrido[4,3-d]pyrimidin-5-one]

Same assay, conditions: Table 3; competition with biotinylated radicicol

IC50 [µM] | SMILES
< 10 | Cc1nc(N)nc2c1C(=O)N(CCCN)[C@@H](c1ccc(F)cc1-c1cccnc1)C2 [Compound 168, (R)-2-Amino-6-(3-amino-pnlpropyl)-7-(4-fluoro-2-pyridin-3-yl-phenyl)-4-methyl-7,8-dihydro-6H-pyrido[4,3-d]pyrimidin-5-one]
< 10 | COc1cncc(-c2cc(F)ccc2[C@H]2Cc3nc(N)nc(C)c3C(=O)N2Cc2ccccc2)n1 [Compound 136, (R)-2-Amino-6-benzyl-7-[4-fluoro-2-(6-methoxy-pyrazin-2-yl)-phenyl]-4-methyl-7,8-dihydro-6H-pyrido[4,3-d]pyrimidin-5-one]
< 10 | COc1nc(-c2cc(F)ccc2[C@H]2Cc3nc(N)nc(C)c3C(=O)N2Cc2ccccc2Cl)cnc1N [Compound 126, (R)-2-Amino-7-[2-(5-amino-6-methoxy-pyrazin-2-yl)-4-fluoro-phenyl]-6-(2-chloro-benzyl)-4-methyl-7,8-dihydro-6H-pyrido[4,3-d]pyrimidin-5-one]
> 10 | Cc1nc(N)nc2c1C(=O)N(CCCNC(=O)OC(C)(C)C)[C@@H](c1ccc(F)cc1Br)C2 [Compound 165, {3-[(R)-2-Amino-7-(2-bromo-4-fluoro-phenyl)-4-methyl-5-oxo-7,8-dihydro-5H-pyrido[4,3-d]pyrimidm-6-yl]-propyl}-carbamic acid tert-butyl ester]
> 10 | COc1ccc(-c2cc(F)ccc2[C@H]2Cc3nc(N)nc(C)c3C(=O)N2Cc2ccccc2)cc1F [Compound 139, (R)-2-Amino-6-benzyl-7-(5,3′-difluoro-4′-methoxy-biphenyl-2-yl)-4-methyl-7,8-dihydro-6H-pyrido[4,3-d]pyrimidin-5-one]
< 10 | COc1cccc(-c2cc(F)ccc2[C@H]2Cc3nc(N)nc(C)c3C(=O)N2Cc2ccncc2)n1 [Compound 120, (R)-2-Amino-7-[4-fluoro-2-(6-methoxy-pyridin-2-yl)-phenyl]-4-methyl-6-pyridin-4-ylmethyl-7,8-dihydro-6H-pyrido[4,3-d]pyrimidin-5-one]
> 10 | CCN1C(=O)c2c(C)nc(N)nc2C[C@@H]1c1ccc(F)cc1-c1cnc(OC)nc1OC [Compound 111, (R)-2-Amino-7-[2-(2,4-dimethoxy-pyrimidin-5-yl)-4-fluoro-phenyl]-6-ethyl-4-methyl-7,8-dihydro-6H-pyrido[4,3-d]pyrimidin-5-one]
< 10 | COc1cncc(-c2cc(F)ccc2[C@H]2Cc3nc(N)nc(C)c3C(=O)N2CCC(C)C)n1 [Compound 146, (R)-2-Amino-7-[4-fluoro-2-(6-methoxy-pyrazin-2-yl)-phenyl]-4-methyl-6-(3-methyl-butyl)-7,8-dihydro-6H-pyrido[4,3-d]pyrimidin-5-one]
> 10 | Cc1nc(N)nc2c1C(=O)N(CC(C)C)[C@@H](c1ccc(F)cc1Br)C2 [Compound 149, (R)-2-Amino-7-(2-bromo-4-fluoro-phenyl)-6-isobutyl-4-methyl-7,8-dihydro-6H-pyrido[4,3-d]pyrimidin-5-one]

Same assay, conditions: Table 4; competition with biotinylated radicicol

IC50 [µM] | SMILES
< 10 | COc1ccc(F)cc1-c1cc(F)ccc1[C@H]1Cc2nc(N)ncc2C(=O)N1 [Compound 177, (R)-2-Amino-7-(5,5′-difluoro-2′-methoxy-biphenyl-2-yl)-7,8-dihydro-6H-pyrido[4,3-d]pyrimidin-5-one]
< 10 | CCOc1nc(-c2cc(F)ccc2[C@H]2Cc3nc(N)nc(CC)c3C(=O)N2)cnc1N [Compound 226, (R)-2-Amino-7-[2-(5-amino-6-ethoxy-pyrazin-2-yl)-4-fluoro-phenyl]-4-ethyl-7,8-dihydro-6H-pyrido[4,3-d]pyrimidin-5-one]
< 10 | COc1nc(-c2ccccc2[C@H]2Cc3nc(N)nc(C)c3C(=O)N2)cs1 [Compound 188, (R)-2-Amino-7-[2-(2-methoxy-thiazol-4-yl)-phenyl]-4-methyl-7,8-dihydro-6H-pyrido[4,3-d]pyrimidin-5-one]
< 10 | CCOc1nc(-c2cc(F)ccc2[C@H]2Cc3nc(N)nc(C)c3C(=O)N2)cnc1N [Compound 196, (R)-2-Amino-7-[2-(5-amino-6-ethoxy-pyrazin-2-yl)-4-fluoro-phenyl]-4-methyl-7,8-dihydro-6H-pyrido[4,3-d]pyrimidin-5-one]
< 10 | COc1ccc([C@H]2Cc3nc(N)nc(C)c3C(=O)N2)c(-c2cncc(OC)n2)c1 [Compound 227, (R)-2-Amino-7-[4-methoxy-2-(6-methoxy-pyrazin-2-yl)-phenyl]-4-methyl-7,8-dihydro-6H-pyrido[4,3-d]pyrimidin-5-one]
≥ 10 | COc1ccc(-c2cc(F)ccc2[C@H]2Cc3nc(N)ncc3C(=O)N2)cc1OC [Compound 179, (R)-2-Amino-7-(5-fluoro-3′,4′-dimethoxy-biphenyl-2-yl)-7,8-dihydro-6H-pyrido[4,3-d]pyrimidin-5-one]
< 10 | COc1nc(-c2cc(F)ccc2[C@H]2Cc3nc(N)nc(C)c3C(=O)N2)ccc1N [Compound 190, (R)-2-Amino-7-[2-(5-amino-6-methoxy-pyridin-2-yl)-4-fluoro-phenyl]-4-methyl-7,8-dihydro-6H-pyrido[4,3-d]pyrimidin-5-o[…]ne]
< 10 | COc1cncc(-c2cc(F)ccc2[C@H]2Cc3nc(N)ncc3C(=O)N2)n1 [Compound 175, (R)-2-Amino-7-[4-fluoro-2-(6-methoxy-pyrazin-2-yl)-phenyl]-7,8-dihydro-6H-pyrido[4,3-d]pyrimidin-5-one]
< 10 | CCOc1nc(-c2ccccc2[C@H]2Cc3nc(N)ncc3C(=O)N2)cnc1N [Compound 234, (R)-2-Amino-7-[2-(5-amino-6-ethoxy-pyrazin-2-yl)-phenyl]-7,8-dihydro-6H-pyrido[4,3-d]pyrimidin-5-one]
< 10 | COc1cncc(-c2ccccc2[C@H]2Cc3nc(N)nc(C)c3C(=O)N2)n1 [Compound 194, (R)-2-Amino-7-[2-(6-methoxy-pyrazin-2-yl)-phenyl]-4-methyl-7,8-dihydro-6H-pyrido[4,3-d]pyrimidin-5-one]
≥ 10 | CCc1nc(N)nc2c1C(=O)N[C@@H](c1ccc(F)cc1Br)C2 [Compound 210, (R)-2-Amino-7-(2-bromo-4-fluoro-phenyl)-4-ethyl-7,8-dihydro-6H-pyrido[4,3-d]pyrimidin-5-one]
< 10 | COc1cccc(-c2ccccc2[C@H]2Cc3nc(N)ncc3C(=O)N2)n1 [Compound 206, (R)-2-Amino-7-[2-(6-methoxy-pyridin-2-yl)-phenyl]-7,8-dihydro-6H-pyrido[4,3-d]pyrimidin-5-one]
